What was measured:
Conditions in all cases: binder
VRK1 = target: T1, VRK1 (Homo sapiens, UniProt Q99986)
T1 sequence (Q99986 1-396): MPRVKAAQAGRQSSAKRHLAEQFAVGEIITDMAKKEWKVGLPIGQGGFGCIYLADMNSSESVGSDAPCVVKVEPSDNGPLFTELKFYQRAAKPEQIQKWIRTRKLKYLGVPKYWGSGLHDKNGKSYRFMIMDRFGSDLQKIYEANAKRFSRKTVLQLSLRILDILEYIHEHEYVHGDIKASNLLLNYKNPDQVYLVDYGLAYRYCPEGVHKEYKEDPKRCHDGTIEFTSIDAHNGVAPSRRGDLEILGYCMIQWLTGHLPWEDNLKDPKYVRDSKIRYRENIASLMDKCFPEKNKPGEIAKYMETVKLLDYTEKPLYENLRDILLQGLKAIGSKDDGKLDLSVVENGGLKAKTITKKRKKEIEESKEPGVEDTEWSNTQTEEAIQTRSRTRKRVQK

ULK3 = target: T2, ULK3 (Homo sapiens, UniProt Q6PHR2)
T2 sequence (Q6PHR2 1-472): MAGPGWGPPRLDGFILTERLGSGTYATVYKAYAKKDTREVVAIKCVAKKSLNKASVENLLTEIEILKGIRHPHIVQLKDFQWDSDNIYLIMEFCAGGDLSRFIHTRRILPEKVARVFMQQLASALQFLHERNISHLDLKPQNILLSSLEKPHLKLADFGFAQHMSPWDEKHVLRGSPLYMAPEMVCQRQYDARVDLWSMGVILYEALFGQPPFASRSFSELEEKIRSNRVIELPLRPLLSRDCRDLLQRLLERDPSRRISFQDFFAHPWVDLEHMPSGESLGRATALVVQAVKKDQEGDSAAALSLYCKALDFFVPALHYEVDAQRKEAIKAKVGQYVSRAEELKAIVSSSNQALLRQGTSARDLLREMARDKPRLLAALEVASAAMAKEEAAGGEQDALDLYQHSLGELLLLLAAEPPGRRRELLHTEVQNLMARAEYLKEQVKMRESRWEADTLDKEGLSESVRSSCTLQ

SLK = SLK (Homo sapiens, UniProt Q9H2G2)
TLK1 = target: T3, TLK1 (Homo sapiens, UniProt Q9UKI8)
T3 sequence (Q9UKI8 1-766): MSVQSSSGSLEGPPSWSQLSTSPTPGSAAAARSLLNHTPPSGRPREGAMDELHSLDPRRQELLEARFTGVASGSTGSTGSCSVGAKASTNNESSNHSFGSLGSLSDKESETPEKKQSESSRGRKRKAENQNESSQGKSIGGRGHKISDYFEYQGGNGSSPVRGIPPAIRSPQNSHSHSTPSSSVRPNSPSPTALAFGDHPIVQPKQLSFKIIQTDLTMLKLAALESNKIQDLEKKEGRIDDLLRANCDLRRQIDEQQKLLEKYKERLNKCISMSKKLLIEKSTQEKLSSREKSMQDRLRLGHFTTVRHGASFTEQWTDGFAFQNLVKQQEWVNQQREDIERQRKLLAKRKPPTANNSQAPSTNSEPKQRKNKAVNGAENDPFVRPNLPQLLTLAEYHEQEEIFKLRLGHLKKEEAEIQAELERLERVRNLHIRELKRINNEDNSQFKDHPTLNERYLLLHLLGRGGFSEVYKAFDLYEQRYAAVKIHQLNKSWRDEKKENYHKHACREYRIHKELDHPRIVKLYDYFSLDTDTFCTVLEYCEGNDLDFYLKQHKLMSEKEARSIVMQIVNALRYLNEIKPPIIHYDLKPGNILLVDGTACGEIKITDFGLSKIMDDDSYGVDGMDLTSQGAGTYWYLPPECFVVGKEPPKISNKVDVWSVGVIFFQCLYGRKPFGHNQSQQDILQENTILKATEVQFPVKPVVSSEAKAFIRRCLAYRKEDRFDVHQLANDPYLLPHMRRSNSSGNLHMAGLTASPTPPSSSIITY

STLK3 = STLK3 (Homo sapiens, UniProt Q9UEW8)
TAF1 = TAF1 (Homo sapiens, UniProt P21675)
TTK = target: T4, TTK (Homo sapiens, UniProt P33981)
T4 sequence (P33981 1-857): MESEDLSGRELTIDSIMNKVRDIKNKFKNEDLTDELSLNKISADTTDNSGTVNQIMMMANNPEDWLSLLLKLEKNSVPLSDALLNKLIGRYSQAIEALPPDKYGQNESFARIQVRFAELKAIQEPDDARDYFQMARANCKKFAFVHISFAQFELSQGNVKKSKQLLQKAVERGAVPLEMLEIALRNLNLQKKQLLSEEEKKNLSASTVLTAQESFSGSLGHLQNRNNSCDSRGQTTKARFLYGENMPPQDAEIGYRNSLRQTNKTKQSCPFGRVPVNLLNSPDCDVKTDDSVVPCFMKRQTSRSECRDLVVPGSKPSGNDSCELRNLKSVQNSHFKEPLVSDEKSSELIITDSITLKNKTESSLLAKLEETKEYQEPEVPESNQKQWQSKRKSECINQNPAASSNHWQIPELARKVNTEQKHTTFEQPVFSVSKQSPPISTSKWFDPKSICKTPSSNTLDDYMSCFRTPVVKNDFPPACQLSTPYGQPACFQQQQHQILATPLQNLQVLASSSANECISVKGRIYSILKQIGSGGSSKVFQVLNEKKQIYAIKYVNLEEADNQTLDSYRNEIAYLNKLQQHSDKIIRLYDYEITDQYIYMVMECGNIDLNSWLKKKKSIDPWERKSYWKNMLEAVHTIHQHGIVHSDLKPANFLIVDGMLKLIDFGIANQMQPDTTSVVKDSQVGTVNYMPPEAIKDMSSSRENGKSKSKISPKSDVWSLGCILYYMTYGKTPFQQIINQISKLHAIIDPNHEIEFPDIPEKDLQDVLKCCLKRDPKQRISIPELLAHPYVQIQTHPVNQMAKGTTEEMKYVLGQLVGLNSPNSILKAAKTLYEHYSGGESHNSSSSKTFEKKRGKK

MST4 = MST4 (Homo sapiens, UniProt Q9P289)
Chain of MST4 (Q9P289 whole entry): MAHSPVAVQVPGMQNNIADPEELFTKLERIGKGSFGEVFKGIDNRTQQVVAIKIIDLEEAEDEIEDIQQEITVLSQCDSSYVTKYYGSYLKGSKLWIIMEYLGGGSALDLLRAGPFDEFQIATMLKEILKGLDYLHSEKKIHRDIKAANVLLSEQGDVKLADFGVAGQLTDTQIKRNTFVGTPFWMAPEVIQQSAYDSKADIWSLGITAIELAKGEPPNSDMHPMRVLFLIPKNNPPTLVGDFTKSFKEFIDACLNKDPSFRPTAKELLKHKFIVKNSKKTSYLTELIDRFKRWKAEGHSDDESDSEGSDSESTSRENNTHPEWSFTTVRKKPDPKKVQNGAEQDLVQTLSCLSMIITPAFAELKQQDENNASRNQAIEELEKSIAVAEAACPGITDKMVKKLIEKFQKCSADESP

Chain of TAF1 (P21675 whole entry): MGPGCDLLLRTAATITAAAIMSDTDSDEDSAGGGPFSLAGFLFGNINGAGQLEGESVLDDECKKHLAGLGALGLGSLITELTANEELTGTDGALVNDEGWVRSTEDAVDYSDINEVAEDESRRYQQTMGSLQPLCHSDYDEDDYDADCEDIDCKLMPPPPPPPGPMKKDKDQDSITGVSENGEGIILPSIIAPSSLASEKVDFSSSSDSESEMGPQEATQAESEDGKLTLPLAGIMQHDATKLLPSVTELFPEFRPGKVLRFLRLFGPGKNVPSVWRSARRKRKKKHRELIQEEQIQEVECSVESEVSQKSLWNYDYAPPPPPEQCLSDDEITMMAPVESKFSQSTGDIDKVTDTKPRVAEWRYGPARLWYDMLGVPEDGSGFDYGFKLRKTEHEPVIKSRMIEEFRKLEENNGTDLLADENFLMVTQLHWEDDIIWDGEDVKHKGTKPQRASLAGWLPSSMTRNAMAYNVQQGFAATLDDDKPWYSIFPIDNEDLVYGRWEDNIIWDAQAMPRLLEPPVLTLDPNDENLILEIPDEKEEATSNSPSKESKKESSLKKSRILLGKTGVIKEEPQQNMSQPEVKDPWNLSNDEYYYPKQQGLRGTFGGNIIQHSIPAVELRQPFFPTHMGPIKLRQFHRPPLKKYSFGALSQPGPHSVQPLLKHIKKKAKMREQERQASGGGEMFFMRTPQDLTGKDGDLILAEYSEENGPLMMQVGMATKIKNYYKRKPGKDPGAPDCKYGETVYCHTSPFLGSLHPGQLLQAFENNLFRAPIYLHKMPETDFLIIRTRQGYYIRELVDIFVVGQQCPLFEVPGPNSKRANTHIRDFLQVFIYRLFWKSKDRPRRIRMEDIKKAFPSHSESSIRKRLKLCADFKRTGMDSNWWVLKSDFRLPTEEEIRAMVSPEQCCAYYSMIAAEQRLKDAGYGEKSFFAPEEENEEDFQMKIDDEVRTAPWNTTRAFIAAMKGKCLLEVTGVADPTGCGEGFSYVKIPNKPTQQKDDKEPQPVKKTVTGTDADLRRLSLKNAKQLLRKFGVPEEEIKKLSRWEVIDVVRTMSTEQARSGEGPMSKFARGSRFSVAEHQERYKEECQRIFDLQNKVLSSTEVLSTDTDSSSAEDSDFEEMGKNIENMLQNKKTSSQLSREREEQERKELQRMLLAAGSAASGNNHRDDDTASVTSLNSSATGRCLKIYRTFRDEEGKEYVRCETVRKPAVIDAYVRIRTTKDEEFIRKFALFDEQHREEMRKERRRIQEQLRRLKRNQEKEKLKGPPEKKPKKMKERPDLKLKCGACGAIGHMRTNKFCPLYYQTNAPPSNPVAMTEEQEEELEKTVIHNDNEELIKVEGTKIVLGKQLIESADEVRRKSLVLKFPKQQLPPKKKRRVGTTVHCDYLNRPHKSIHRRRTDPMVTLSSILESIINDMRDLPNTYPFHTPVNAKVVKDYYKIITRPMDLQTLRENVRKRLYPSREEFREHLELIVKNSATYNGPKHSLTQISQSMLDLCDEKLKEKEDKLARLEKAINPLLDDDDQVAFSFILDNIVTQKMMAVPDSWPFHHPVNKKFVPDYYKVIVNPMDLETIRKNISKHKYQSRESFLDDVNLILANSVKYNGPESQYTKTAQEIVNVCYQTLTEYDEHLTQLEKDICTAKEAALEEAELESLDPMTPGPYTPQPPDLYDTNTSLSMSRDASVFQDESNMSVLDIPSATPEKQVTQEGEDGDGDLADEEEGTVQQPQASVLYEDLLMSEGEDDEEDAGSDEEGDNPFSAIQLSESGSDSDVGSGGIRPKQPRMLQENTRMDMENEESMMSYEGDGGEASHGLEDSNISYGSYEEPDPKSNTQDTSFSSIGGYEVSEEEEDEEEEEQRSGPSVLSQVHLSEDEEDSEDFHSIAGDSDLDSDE
Chain of SLK (Q9H2G2 whole entry): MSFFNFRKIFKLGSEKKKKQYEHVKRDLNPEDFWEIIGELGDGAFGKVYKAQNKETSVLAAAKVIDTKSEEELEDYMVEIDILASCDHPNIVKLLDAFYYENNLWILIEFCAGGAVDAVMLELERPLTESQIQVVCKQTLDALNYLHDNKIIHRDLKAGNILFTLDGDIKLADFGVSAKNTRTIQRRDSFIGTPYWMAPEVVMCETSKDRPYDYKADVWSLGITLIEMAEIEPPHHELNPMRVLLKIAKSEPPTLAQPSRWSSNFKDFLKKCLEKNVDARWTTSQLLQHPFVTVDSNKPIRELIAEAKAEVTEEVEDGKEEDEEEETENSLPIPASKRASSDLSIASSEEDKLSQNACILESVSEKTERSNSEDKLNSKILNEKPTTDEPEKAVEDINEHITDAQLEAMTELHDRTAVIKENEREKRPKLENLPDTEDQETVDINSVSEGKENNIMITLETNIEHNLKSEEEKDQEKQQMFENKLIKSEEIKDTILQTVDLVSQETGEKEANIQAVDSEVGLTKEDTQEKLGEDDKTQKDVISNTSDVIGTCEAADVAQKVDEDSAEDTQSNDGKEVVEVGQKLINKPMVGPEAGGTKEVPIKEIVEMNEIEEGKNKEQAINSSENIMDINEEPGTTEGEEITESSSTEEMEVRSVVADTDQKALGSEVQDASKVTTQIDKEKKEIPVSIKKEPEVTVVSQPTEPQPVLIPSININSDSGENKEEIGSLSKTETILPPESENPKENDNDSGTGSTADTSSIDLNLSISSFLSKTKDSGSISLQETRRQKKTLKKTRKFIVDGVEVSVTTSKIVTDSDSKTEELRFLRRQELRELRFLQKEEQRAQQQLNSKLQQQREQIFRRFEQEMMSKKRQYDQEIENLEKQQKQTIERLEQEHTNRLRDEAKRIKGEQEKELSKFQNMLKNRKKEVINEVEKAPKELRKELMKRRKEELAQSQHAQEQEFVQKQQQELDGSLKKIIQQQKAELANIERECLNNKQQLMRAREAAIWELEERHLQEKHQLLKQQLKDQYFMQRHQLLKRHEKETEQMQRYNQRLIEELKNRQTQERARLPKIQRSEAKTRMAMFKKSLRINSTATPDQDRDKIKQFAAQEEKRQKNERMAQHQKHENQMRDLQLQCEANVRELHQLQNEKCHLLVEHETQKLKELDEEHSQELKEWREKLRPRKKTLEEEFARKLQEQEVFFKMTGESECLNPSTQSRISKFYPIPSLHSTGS

Cc1cccc(-c2ccc(-c3cc4cnc(NCCCN5CCCC5=O)nc4n(CCCCN)c3=O)c(Cl)c2)n1 [compound 27, MR30]
ΔTm MR30 (27) (VRK1): -0.1 °C | ΔTm MR30 (27) (ULK3): 7.3 °C | ΔTm MR30 (27) (SLK): 2.6 °C | ΔTm MR30 (27) (TLK1): -2.0 °C | ΔTm MR30 (27) (STLK3): 10.0 °C | ΔTm MR30 (27) (TAF1): 0.0 °C | ΔTm MR30 (27) (TTK): -0.3 °C | dTm MST4 (MST4): 7.5 °C

Cc1cccc(-c2ccc(-c3cc4cnc(Nc5ccc(O)cc5)nc4n(CCCCN)c3=O)c(Cl)c2)n1 [compound 31, 8-(4-Aminobutyl)-6-(2-chloro-4-(6-methylpyridin-2-yl)phenyl)-2-((4-hydroxyphenyl)amino) pyrido[2,3-d]pyrimidin-7(8H)-one]
ΔTm 31 (VRK1): 0.9 °C | ΔTm 31 (ULK3): 14.5 °C | ΔTm 31 (SLK): 7.7 °C | ΔTm 31 (TLK1): -1.6 °C | ΔTm 31 (STLK3): 16.6 °C | ΔTm 31 (TAF1): -1.0 °C | ΔTm 31 (TTK): 5.1 °C | dTm MST4 (MST4): 15.0 °C

Cc1cccc(-c2ccc(-c3cc4cnc(Nc5ccc(CCCO)cc5)nc4n(CCCCN)c3=O)c(Cl)c2)n1 [compound 30, 8-(4-Aminobutyl)-6-(2-chloro-4-(6-methylpyridin-2-yl)phenyl)-2-((4-(3-hydroxypropyl)phenyl)amino)pyrido[2,3-d]pyrimidin-7(8H)-one]
ΔTm 30 (VRK1): 0.3 °C | ΔTm 30 (ULK3): 14.9 °C | ΔTm 30 (SLK): 8.6 °C | ΔTm 30 (TLK1): -0.9 °C | ΔTm 30 (STLK3): 16.6 °C | ΔTm 30 (TAF1): -0.5 °C | ΔTm 30 (TTK): 5.6 °C | dTm MST4 (MST4): 15.3 °C

Cc1cccc(-c2ccc(-c3cc4cnc(Nc5cc(C(F)(F)F)ccc5C)nc4n(CCCCN)c3=O)c(Cl)c2)n1 [compound 28, 8-(4-Aminobutyl)-6-(2-chloro-4-(6-methylpyridin-2-yl)phenyl)-2-((2-methyl-5-(trifluoromethyl)phenyl)amino)pyrido[2,3-d]pyrimidin-7(8H)-one]
ΔTm 28 (VRK1): 0.8 °C | ΔTm 28 (ULK3): 6.5 °C | ΔTm 28 (SLK): 4.5 °C | ΔTm 28 (TLK1): -1.8 °C | ΔTm 28 (STLK3): 10.4 °C | ΔTm 28 (TAF1): 0.4 °C | ΔTm 28 (TTK): -11.0 °C | dTm MST4 (MST4): 9.5 °C

Cc1cccc(-c2ccc(-c3cc4cnc(Nc5ccc(C)c(O)c5)nc4n(CCCCN)c3=O)c(Cl)c2)n1 [compound 32, 8-(4-Aminobutyl)-6-(2-chloro-4-(6-methylpyridin-2-yl)phenyl)-2-((3-hydroxy-4-methylphenyl)amino)pyrido[2,3-d]pyrimidin-7(8H)-one]
ΔTm 32 (VRK1): 0.8 °C | ΔTm 32 (ULK3): 14.3 °C | ΔTm 32 (SLK): 7.8 °C | ΔTm 32 (TLK1): -0.8 °C | ΔTm 32 (STLK3): 16.6 °C | ΔTm 32 (TAF1): 0.5 °C | ΔTm 32 (TTK): 2.2 °C | dTm MST4 (MST4): 15.9 °C

Source: article doi:10.1101/2023.11.24.568596v1 (biorxiv, 2023)
